Data on 20 compounds can be found in patent US8889704B2 (Array BioPharma Inc., priority 2011, dated 2014).

Assay type in all cases: biochemical
One assay addresses recombinant rat PIM-3 (Rattus norvegicus, UniProt O70444). The assay can be described thus: PIM-3 Assay (as Example A). The note with it: averaged IC50; 30 μM ATP, 3.75 μM PIM2tide, 0.5 nM PIM-3. In short, it runs like this: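 Recombinant rat PIM-3 (0.5 nM) with 3.75 μM PIM2tide and 30 μM [γ-33P]ATP in MOPS pH 7.4 buffer, 60 min at 22 °C; labelled peptide captured on phosphocellulose filters and counted by scintillation. 10-point curve (top dose 10 μM, 2% DMSO); IC50 from 4-parameter fit of percent of control.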

For assay [1], the target named is T1, GST-tagged recombinant full-length human Pim-2 (Homo sapiens, UniProt Q9P1W9).
T1 construct: GST-tagged recombinant full-length human Pim-2; GST
T1 sequence (Q9P1W9 whole entry): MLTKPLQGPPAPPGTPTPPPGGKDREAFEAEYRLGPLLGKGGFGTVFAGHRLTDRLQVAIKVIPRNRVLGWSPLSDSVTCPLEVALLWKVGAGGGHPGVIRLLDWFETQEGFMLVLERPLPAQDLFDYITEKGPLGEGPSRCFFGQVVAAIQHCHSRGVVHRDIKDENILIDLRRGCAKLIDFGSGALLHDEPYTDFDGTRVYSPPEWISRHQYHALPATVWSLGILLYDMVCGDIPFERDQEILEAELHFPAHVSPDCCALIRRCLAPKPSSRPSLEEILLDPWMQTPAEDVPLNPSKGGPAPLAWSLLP
The assay can be described thus: PIM-2 Assay (as Example A). The note with it: averaged IC50; 4 μM ATP, 1.0 μM PIM2tide, 1.5 nM Pim-2. In short, it runs like this: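 Radiometric filter-binding assay: GST-tagged full-length human Pim-2 (1.5 nM) phosphorylates 1.0 μM PIM2tide with 4 μM [γ-33P]ATP for 60 min at 22 °C in pH 7.4 MOPS buffer, 2% DMSO. 10-point 3-fold dilutions from 10 μM top dose; IC50 from 4-parameter fit of percent of control.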

Another assay concerns the target PIM-1 (Homo sapiens, UniProt P11309). The assay can be described thus: Enzyme PIM-1 Assay ([33P]ATP incorporation into PIM2tide, filter plate). The note with it: averaged IC50; 35 μM ATP, 7.5 μM PIM2tide, 0.25 nM PIM-1, 60 min at 22° C. In short, it runs like this: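 Radiometric assay: 0.25 nM PIM-1 phosphorylates 7.5 μM PIM2tide with 35 μM [γ-33P]ATP in 20 mM MOPS pH 7.4, 10 mM MgCl2, 1 mM DTT, 0.005% Tween-20, 60 min at 22 °C. Product captured on P81 filters, scintillation counted; 10-point 3-fold curve from 10 μM top, 2% DMSO, IC50 by 4-parameter logistic fit of POC.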

Structures can show the parent of a compound that is named as a salt.

The IC50 is the concentration at which inhibition is half-maximal.

PIM-1, sequence (P11309 whole entry, species assumed): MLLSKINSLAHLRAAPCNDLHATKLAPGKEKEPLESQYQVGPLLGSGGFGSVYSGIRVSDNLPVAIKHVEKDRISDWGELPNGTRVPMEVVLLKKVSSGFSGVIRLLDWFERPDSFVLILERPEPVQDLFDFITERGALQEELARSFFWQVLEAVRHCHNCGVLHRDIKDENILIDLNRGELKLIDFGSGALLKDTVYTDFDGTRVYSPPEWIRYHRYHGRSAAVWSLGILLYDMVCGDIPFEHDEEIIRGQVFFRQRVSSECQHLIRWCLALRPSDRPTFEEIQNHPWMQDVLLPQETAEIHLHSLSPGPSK

`N[C@H]1CCN([C@H](c2ccc3nnc(-c4ccc5cc(F)c(O)cc5n4)n3c2)C(F)(F)F)C1` [Example 157, 2-(6-((R)-1-((S)-3-aminopyrrolidin-1-yl)-2,2,2-trifluoroethyl)-[1,2,4]triazolo[4,3-a]pyridin-3-yl)-6-fluoroquinolin-7-ol hydrochloride]: the IC50 on recombinant rat PIM-3 was 12 nM; in assay [1], 239 nM; at PIM-1 it was 3.44 nM.
`C[C@@H](c1ccc2nnc(-c3ccc4cccc(C(C)(C)C)c4n3)n2c1)N1CC[C@H](N)C1` [Example 308, (S)-1-((S)-1-(3-(8-tert-butylquinolin-2-yl)-[1,2,4]triazolo[4,3-a]pyridin-6-yl)ethyl)pyrrolidin-3-amine trihydrochloride]: the IC50 at recombinant rat PIM-3 came to 0.4 nM; in assay [1], 29.4 nM; against PIM-1 it was 0.17 nM.
For `N[C@H]1CCN([C@H](c2ccc3nnc(-c4ccc5cc(F)cc(OCCO)c5n4)n3c2)C(F)(F)F)C1` [Example 254, 2-(2-(6-((R)-1-((S)-3-aminopyrrolidin-1-yl)-2,2,2-trifluoroethyl)-[1,2,4]triazolo[4,3-a]pyridin-3-yl)-6-fluoroquinolin-8-yloxy)ethanol dihydrochloride], the IC50 on recombinant rat PIM-3 came to 0.9 nM; in assay [1] it was 273 nM; at PIM-1, 0.25 nM.
Regarding `CCSc1ccc2ccc(-c3nnc4ccc([C@@H](N5CC[C@H](N)C5)C(F)(F)F)cn34)nc2c1` [Example 266, (S)-1-((R)-1-(3-(7-(ethylthio)quinolin-2-yl)-[1,2,4]triazolo[4,3-a]pyridin-6-yl)-2,2,2-trifluoroethyl)pyrrolidin-3-amine hydrochloride], the IC50 came to 1 nM on recombinant rat PIM-3, 690 nM in assay [1] and 0.5 nM against PIM-1.
Regarding `COc1ccc2ccc(-c3nnc4ccc([C@@H](N5CC[C@H](N)C5)C(F)(F)F)cn34)nc2c1` [Example 139, (S)-1-((R)-2,2,2-trifluoro-1-(3-(7-methoxyquinolin-2-yl)-[1,2,4]triazolo[4,3-a]pyridin-6-yl)ethyl)pyrrolidin-3-amine dihydrochloride], the results for the half-maximal inhibitory concentration (IC50) (at recombinant rat PIM-3; in assay [1]; on PIM-1) were 4.9 nM, above 100 nM and 0.58 nM, respectively.
Consider `CC(C)N[C@H]1CCN([C@H](c2ccc3nnc(-c4ccc5cccc(O[C@H](C)CO)c5n4)n3c2)C(F)(F)F)C1` [Example 231, dihydrochloride], for which the IC50 is 3.5 nM on recombinant rat PIM-3, 429 nM in assay [1] and 0.88 nM against PIM-1.
Turning to `CC(C)Oc1cc(F)cc2ccc(-c3nnc4ccc([C@@H](N5CC[C@H](NCCO)C5)C(F)(F)F)cn34)nc12` [Example 102, 2-((S)-1-((R)-2,2,2-trifluoro-1-(3-(6-fluoro-8-isopropoxyquinolin-2-yl)-[1,2,4]triazolo[4,3-a]pyridin-6-yl)ethyl)pyrrolidin-3-ylamino)ethanol dihydrochloride], the IC50 at recombinant rat PIM-3 is 0.7 nM; in assay [1] it was 30 nM; at PIM-1, 0.19 nM.
For `CCOc1cc2nc(-c3nnc4ccc([C@H](N5CC[C@@](C)(N)C5)C(F)(F)F)cn34)ccc2cc1F` [Example 294, (R)-1-((S)-1-(3-(7-ethoxy-6-fluoroquinolin-2-yl)-[1,2,4]triazolo[4,3-a]pyridin-6-yl)-2,2,2-trifluoroethyl)-3-methylpyrrolidin-3-amine hydrochloride] the same measures were 0.7 nM, 94 nM and 0.53 nM.
Turning to `CCc1cccc2ccc(-c3nnc4ccc([C@@H](N5CC[C@H](N)C5)C(F)(F)F)cn34)nc12` [Example 37, (S)-1-((R)-1-(3-(8-ethylquinolin-2-yl)-[1,2,4]triazolo[4,3-a]pyridin-6-yl)-2,2,2-trifluoroethyl)pyrrolidin-3-amine dihydrochloride], the figures for the IC50 (at recombinant rat PIM-3; in assay [1]; against PIM-1) were 0.8 nM, 22 nM and 0.11 nM, respectively.
For `CC(C)Oc1cccc2ccc(-c3nnc4ccc([C@@H](N5CC[C@](N)(CO)C5)C(F)(F)F)cn34)nc12` [Example 188, ((R)-3-amino-1-((R)-2,2,2-trifluoro-1-(3-(8-isopropoxyquinolin-2-yl)-[1,2,4]triazolo[4,3-a]pyridin-6-yl)ethyl)pyrrolidin-3-yl)methanol dihydrochloride] the same measures were 1 nM, 111 nM and 0.3 nM.
Turning to `CC(C)Oc1cccc2ccc(-c3nnc4ccc([C@@H](N5CC[C@H](N)C5)C(F)(F)F)cn34)nc12` [Example 31, (S)-1-((R)-2,2,2-trifluoro-1-(3-(8-isopropoxyquinolin-2-yl)-[1,2,4]triazolo[4,3-a]pyridin-6-yl)ethyl)pyrrolidin-3-amine dihydrochloride], the concentration for half-maximal inhibition (IC50) was found to be 0.4 nM on recombinant rat PIM-3, 23 nM in assay [1] and 0.08 nM on PIM-1.
Regarding `COc1cccc2ccc(-c3nnc4ccc([C@H](N5CC[C@H](N)C5)C(F)(F)F)cn34)nc12` [Example 8, (S)-1-((S)-2,2,2-trifluoro-1-(3-(8-methoxyquinolin-2-yl)-[1,2,4]triazolo[4,3-a]pyridin-6-yl)ethyl)pyrrolidin-3-amine dihydrochloride], the IC50 on recombinant rat PIM-3 is 2.5 nM; in assay [1], 151 nM; at PIM-1 it was 1.31 nM.
Regarding `CC(C)NC(=O)c1ccc2ccc(-c3nnc4ccc([C@H](N5CC[C@@H](N)C5)C(F)(F)F)cn34)nc2c1` [Example 52, 2-(6-((S)-1-((R)-3-aminopyrrolidin-1-yl)-2,2,2-trifluoroethyl)-[1,2,4]triazolo[4,3-a]pyridin-3-yl)-N-isopropylquinoline-7-carboxamide], the IC50 is 2 nM at recombinant rat PIM-3, above 100 nM in assay [1] and 1.39 nM against PIM-1.
For `CC(C)Oc1cc(F)cc2ccc(-c3nnc4ccc([C@H](N5CCC(C)(O)C5)C(F)(F)F)cn34)nc12` (single isomer, unassigned; diastereomer 2) [Example 203, hydrochloride] the same measures were 37 nM, above 1000 nM and 19.8 nM.
As for `CC1(N)CCN(C(c2ccc3nnc(-c4ccc5cccc(O)c5n4)n3c2)C(F)(F)F)C1` (stereo not drawn) [Example 28, 2-(6-(1-(3-amino-3-methylpyrrolidin-1-yl)-2,2,2-trifluoroethyl)-[1,2,4]triazolo[4,3-a]pyridin-3-yl)quinolin-8-ol dihydrochloride], the IC50 at recombinant rat PIM-3 was 8.2 nM; in assay [1] it was above 1000 nM; against PIM-1, 1.08 nM.
As to `N[C@@H]1[C@H]2CN(C(c3ccc4nnc(-c5ccc6cccc(OCC7CC7)c6n5)n4c3)C(F)(F)F)C[C@@H]12` (stereo partly drawn) [Example 26, (1R,5S,6S)-3-(1-(3-(8-(cyclopropylmethoxy)quinolin-2-yl)-[1,2,4]triazolo[4,3-a]pyridin-6-yl)-2,2,2-trifluoroethyl)-3-azabicyclo[3.1.0]hexanesan-6-amine dihydrochloride], the concentration for half-maximal inhibition (IC50) at recombinant rat PIM-3 was above 100 nM; in assay [1] it was 796 nM; against PIM-1 it was 2.12 nM.
With `COc1cc2nc(-c3nnc4ccc([C@@H](N5C[C@@H](N)[C@@H](F)C5)C(F)(F)F)cn34)ccc2cc1F` [Example 210, (3R,4S)-4-fluoro-1-((R)-2,2,2-trifluoro-1-(3-(6-fluoro-7-methoxyquinolin-2-yl)-[1,2,4]triazolo[4,3-a]pyridin-6-yl)ethyl)pyrrolidin-3-amine dihydrochloride], the half-maximal inhibitory concentration (IC50) on recombinant rat PIM-3 was above 100 nM; in assay [1] it was above 1000 nM; at PIM-1, above 100 nM.
On to `COC[C@@H](C)Oc1cccc2ccc(-c3nnc4ccc([C@@H](N5CC[C@H](N(C)C)C5)C(F)(F)F)cn34)nc12` [Example 303, (S)—N,N-dimethyl-1-((R)-2,2,2-trifluoro-1-(3-(8-((R)-1-methoxypropan-2-yloxy)quinolin-2-yl)-[1,2,4]triazolo[4,3-a]pyridin-6-yl)ethyl)pyrrolidin-3-amine dihydrochloride], for which the IC50 turned out to be 5.85 nM on recombinant rat PIM-3, 242 nM in assay [1] and 1.33 nM against PIM-1.
As to `C[C@@H](O)COc1cccc2ccc(-c3nnc4ccc([C@@H](N5CC[C@H](N)C5)C(F)(F)F)cn34)nc12` [Example 283, (R)-1-(2-(6-((R)-1-((S)-3-aminopyrrolidin-1-yl)-2,2,2-trifluoroethyl)-[1,2,4]triazolo[4,3-a]pyridin-3-yl)quinolin-8-yloxy)propan-2-ol formate], the figures for the 50% inhibitory concentration (IC50) (at recombinant rat PIM-3; in assay [1]; on PIM-1) were 0.7 nM, 194 nM and 0.18 nM, respectively.
`CC(C)(C)C(=O)OCCOc1cc2nc(-c3nnc4ccc([C@@H](N5CC[C@H](N)C5)C(F)(F)F)cn34)ccc2cc1F` [Example 286, 2-(2-(6-((R)-1-((S)-3-aminopyrrolidin-1-yl)-2,2,2-trifluoroethyl)-[1,2,4]triazolo[4,3-a]pyridin-3-yl)-6-fluoroquinolin-7-yloxy)ethyl pivalate]: the half-maximal inhibitory concentration (IC50) is 33 nM at recombinant rat PIM-3, above 1000 nM in assay [1] and 1.38 nM against PIM-1.
